Measured values as given in patent US20130288978A1, “DERMATOPONTIN-ACTIVATING PEPTIDES AND COSMETIC COMPOSITIONS INCLUDING SAME” (ISP INVESTMENTS INC., priority 2010, published 2013).
Entries after “also recorded” stand apart in the source; their conditions may differ. Ends that are not written are not given here.

How the values were obtained:
[1] = system: dermatopontin; test: Dermatopontin immunofluorescence labeling in normal human fibroblast cultures; type: cell-based; details: normal human fibroblasts, peptide 10^−6 M once daily, 24 or 48 hours, vs control conditions
Experimental: (§1) The objective of this study is to determine the influence of the SEQ ID No. 5 peptide and of the SEQ ID No. 9 peptide on the expression of dermatopontin in fibroblasts. For this, specific immunofluorescence labelings were performed on normal human fibroblast cultures and on skin kept in culture ex vivo.
Normal human fibroblasts are cultivated for 24 or 48 hours and treated once daily with a 10^−6M solution of peptide SEQ ID No. 5 or of peptide SEQ ID No. 9. The cells are then washed and fixed with 3.7% formaldehyde for 10 minutes at ambient temperature.
(§2) The fixed cells or the sections are incubated in the presence of a specific rabbit dermatopontin polyclonal antibody (Proteintech group, Ref: 10537-1-AP), then a secondary antibody, coupled to a fluorescent marker. After mounting in an ad hoc medium, the cells are then examined with an Epi-fluorescence microscope (Nikon Eclipse E600 microscope).

[2] = system: dermatopontin; test: Dermatopontin immunofluorescence labeling in human skin kept in culture ex vivo; type: cell-based; details: 10^−6 M solution applied topically, 24 or 48 hours
Experimental: as §1
The human skin samples are placed in culture at the air/liquid interface. A 10^−6M solution of peptide SEQ ID No. 5 or of peptide SEQ ID No. 9 is applied topically, then the samples are incubated for 24 hours or 48 hours. These skin samples are then fixed with formaldehyde then embedded in paraffin or fixed with OCT, by freezing at −20° C. Sections of 3 to 4 μm are then produced (6 μm for the cold sections). The immunolabeling of the samples embedded in paraffin is performed after unmasking specific sites. The immunolabeling of samples embedded in OCT is performed after fixation at 37° C. and with cold acetone.
as §2

[3] = system: NHEK; test: Ultrastructure (transmission electron microscopy) of keratinocytes in culture; type: cell-based, human; details: 10^−6 M, 48 hours, vs untreated control
Experimental: (§3) The objective of this study is to observe the subcellular structures of keratinocytes and fibroblasts treated by the SEQ ID No. 5 peptide at 10^−6 M.
(§4) NHEK or fibroblasts are cultivated in a dish or in a Transwell system, or skins cultivated ex vivo are treated with a 10^−6 M solution of SEQ ID No. 5 peptide for 48 hours (the medium is changed every 24 hours). The skin cells or samples are washed with PBS, then are fixed by Karnosky hypertonic fixation (4% paraformaldehyde, 5% glutaraldehyde in a 0.08M phosphate buffer), 1 hour at ambient temperature, then 24 hours at 4° C. The cells are detached from the substrate by scraping, centrifuged for 5 minutes at 1000 rpm at 4° C. The supernatant is removed and a 0.1 M sodium cacodylate buffer is deposited on the pellet. The cells are mixed with 2% agar then post-fixed by osmium tetroxide for 1 hour. The specimens are then dehydrated by successive passages in an alcohol series (50 to 100%). The skin cells or samples are then coated with a resin. The polymerization is performed for around 12 hours at 60° C. Semi-fine sections of 0.5 μm are performed with the ultra-microtome. The sections are deposited on a subbed slide under heat then stained with toluidine blue. The slides are then dehydrated again and mounted in a suitable medium. […]

[4] = system: fibroblasts; test: Ultrastructure (transmission electron microscopy) of fibroblasts in culture; type: cell-based; details: 10^−6 M, 48 hours
Experimental: as §3, §4

[5] = system: skins cultivated ex vivo; test: Ultrastructure (transmission electron microscopy) of skins cultivated ex vivo; type: cell-based; details: ex vivo skin cultures, 10^−6 M, 48 hours
Experimental: as §3, §4

[6] = system: fibronectin; test: Fibronectin immunofluorescence labeling in human dermal fibroblast cultures; type: cell-based; details: human dermal fibroblasts, 10^−6 M once daily, vs control cells
Experimental: (§5) The objective of this study is to determine the influence of the SEQ ID No. 5 peptide on the expression of fibronectin, a protein of the extracellular matrix synthesized by the fibroblasts. For this, specific immunofluorescence labelings were performed on fibroblast cultures and on ex vivo skin cultures.
Human dermal fibroblasts in culture are treated once daily with a 10^−6 solution M of SEQ ID No. 5 peptide (the medium containing the active agent is changed every 24 hours). The cells are then washed and fixed with 3.7% formaldehyde for 10 minutes at ambient temperature.
(§6) The fixed cells or the sections are incubated in the presence of a specific rabbit fibronectin polyclonal antibody (Sigma, Ref: F-3648), then a secondary antibody, coupled with a fluorescent marker. The cells are then examined with the Epi-fluorescence microscope (Nikon Eclipse E600 microscope).

[7] = system: fibronectin; test: Fibronectin immunofluorescence labeling in ex vivo human skin cultures; type: cell-based; details: 10^−6 M applied topically, 24 or 48 hours
Experimental: as §5
The human skin samples are placed in culture at the air/liquid interface. A 10^−6 M solution SEQ ID No. 5 peptide or SEQ ID No. 9 peptide is to be applied topically, then the samples are incubated for 24 or 48 hours. These skin samples are then fixed with formaldehyde, then embedded in paraffin or fixed with OCT by freezing at −20° C. Sections of 3 to 4 μm are then produced (6 μm for cold sections). The immunolabeling of the samples embedded in paraffin is performed after unmasking specific sites. The immunolabeling of the samples embedded in OCT is performed after fixation at 37° C. and with cold acetone.
as §6

[8] = system: collagen I; test: Collagen I immunofluorescence labeling in normal human fibroblast cultures; type: cell-based; details: 10^−6 M once per day, 24 or 48 hours, vs control conditions
Experimental: (§7) The objective of this study is to determine the influence of the SEQ ID No. 5 peptide on the expression of molecules of the dermal extracellular matrix. For this, the expression of collagens I and III in human fibroblasts obtained from the dermis was studied.
(§8) Normal human fibroblasts are cultivated for 24 or 48 hours and treated once per day with a 10^−6M solution of SEQ ID No. 5 peptide or SEQ ID No. 9 peptide. The cells are then washed and fixed with formaldehyde at 3.7% for 10 minutes at ambient temperature.
(§9) The fixed cells or sections are incubated in the presence of a specific rabbit collagen I polyclonal antibody (Rockland, Ref: 600-401-103) or a specific rabbit collagen III polyclonal antibody (Rockland, Ref: 600-401-105), then a secondary antibody coupled to a fluorescent marker. After mounting in an ad hoc medium, the cells are then examined with the Epi-fluorescence microscope (Nikon Eclipse E600 microscope).

[9] = system: collagen I; test: Collagen I immunofluorescence labeling in ex vivo human skin sections; type: cell-based; details: 10^−6 M applied topically, 24 or 48 hours, vs control conditions
Experimental: (§10) The human skin samples are placed in culture at the air/liquid interface. A 10^−6M solution of SEQ ID No. 5 peptide or SEQ ID No. 9 peptide is applied topically, then the samples are incubated for 24 hours or 48 hours. These skin samples are then fixed with formaldehyde, then embedded in paraffin or fixed with OCT by freezing at −20° C. Sections of 3 to 4 μm are then produced (6 μm for cold sections). The immunolabeling of samples embedded in paraffin is performed after unmasking specific sites. The immunolabeling of the samples embedded in OCT is performed after fixation at 37° C. and with cold acetone.
as §9

[10] = system: collagen III; test: Collagen III immunofluorescence labeling in normal human fibroblast cultures; type: cell-based; details: 10^−6 M once per day, 24 or 48 hours, vs control conditions
Experimental: as §7, §8, §9

[11] = system: collagen III; test: Collagen III immunofluorescence labeling in ex vivo human skin sections; type: cell-based; details: 10^−6 M applied topically, 24 or 48 hours, vs control conditions
Experimental: as §10, §9

[12] = system: elastic fibers present in the dermis; test: Elastic fiber staining (Elastika van Gieson) of ex vivo human skin irradiated by UVA; type: cell-based; details: 10^−6 M topically 48 hours before UVA 5 J/cm^2, vs untreated irradiated controls
Experimental: The objective of this study is to determine the influence of the SEQ ID No. 5 peptide on the elastic fibers present in the dermis. To do this, specific staining of the elastic fibers was performed on skin samples cultivated ex vivo.
Human skin samples are placed in culture at the air/liquid interface. A 10^−6 M solution of SEQ ID No. 5 peptide is applied topically, then the samples are incubated for 48 hours before being irradiated by UVA at 5 J/cm^2. Untreated irradiated controls are produced in parallel.
These skin samples are then fixed with formaldehyde, then embedded in paraffin. Sections of 4 μm are then produced. These skin sections are successively removed from the paraffin, then rehydrated in different xylene and alcohol baths. the elastin fibers are stained using an Elastika van Gieson staining kit (VWR, Ref: 1.15974). The stained skin sections are dehydrated then mounted in the Eukitt mounting medium and observed under a microscope.

[13] = system: normal human keratinocytes (NHEK); test: Ibidi in vitro healing model (gap filling), keratinocytes; type: cell-based
Text: (§11) The objective of this study is to determine the regenerating effect of the SEQ ID No. 5 peptide on dermal fibroblasts and normal human keratinocytes (NHEK). To do this, the Ibidi in vitro healing model (Integrated Bio Diagnostics, Munich, Germany) was used.
(§12) This test consists of maintaining a cell-free area at the middle of a cell layer and of evaluating the time taken by the cells arranged on either side of the “scar” to migrate or proliferate and fill the gap. The self-adhesive silicone culture inserts are placed at the base of a well of a culture plate. These inserts have the special feature of being comprised of two distinct chambers separated by an impermeable membrane with a thickness of 500 μm. Each of the two chambers is seeded with cells of the same cell type and cultivated until confluency. The insert is then removed with sterile tweezers, creating an acellular area 400 μm wide between the two cell layers. The cells are then treated with a 10^−6 M or a 3×10^−6M solution of SEQ ID No. 5 peptide added to the culture medium, with renewal of the peptide every 24 hours. Phase-contrast microscopy observations (Olympus CK40 microscope X5 connected to an Olympus E-510 camera) were performed at different times (0, 6, 24, 30 and 48 hours) until the proliferation and migration process results in the filling of the gap.

[14] = system: dermal fibroblasts; test: Ibidi in vitro healing model (gap filling), fibroblasts; type: cell-based, human
Text: as §11, §12

## Arg-Glu-Trp-Gln-Phe-Tyr-Cys(Cys)-(NH2) [SEQ ID No. 5]
[1]
  expression of dermatopontin (immunofluorescence): more intense fluorescence; also recorded: very substantially stimulate the expression of dermatopontin
[2]
  expression of dermatopontin (immunofluorescence): more intense fluorescence at the dermis
[3]; cultures in a TRANSWELL system
  intercellular contacts between keratinocytes (ultrastructure): more cohesive
[3]; keratinocytes in culture
  organelles / mitochondria in keratinocytes (ultrastructure): enrichment in organelles, and in particular mitochondria; also recorded: increase in the density of mitochondria
[4]; vs control cells
  caveolar bodies, rough endoplasmic reticulum and Golgi apparatus (ultrastructure): substantially more developed
[4]; vs untreated control cells
  secretion / synthesis of components of the extracellular matrix (ultrastructure): more intense secretion of components of the extracellular matrix; also recorded: increase in the synthesis of components of the extracellular matrix
[5]
  cellular contacts between the cells of the basal layer (ultrastructure): narrower cellular contacts between the cells of the basal layer; also recorded: increases the intercellular contacts of the basal keratinocytes
[6]
  expression of fibronectin (immunofluorescence): more intense cytoplasmic fluorescence; also recorded: very substantially stimulates the expression of fibronectin
[7]
  densification of the area supporting the dermoepidermal junction (fibronectin immunofluorescence): stimulates the densification of the area supporting the dermoepidermal junction
[8]
  expression of collagen I (immunofluorescence): more intense fluorescence; also recorded: increases the expression of collagen I
[9]
  expression of collagen I (immunofluorescence): more intense fluorescence
[10]
  expression of collagen III (immunofluorescence): more intense fluorescence; also recorded: increases the expression
[11]
  expression of collagen III (immunofluorescence): more intense fluorescence
[12]
  degradation of the elastic fibers after UV irradiation: less degradation of the elastic fibers; also recorded: preserves the elastic fibers
  organization of the elastic fibers after UV irradiation: better preservation of the organization of the elastic fibers
[13]; NHEK cultivated in the presence of the peptide
  gap filling / proliferation and migration by comparison with control conditions: filled the gap faster; also recorded: stimulates the proliferation and migration
[13]; human keratinocytes, 10^−6 M, 400 μm gap, control gap not yet filled at the same time
  time to total filling of the gap: 30 h
[13]; keratinocytes, 3×10^−6 M compared with 10^−6 M
  dose dependence of gap filling: the gap fills faster
[14]; fibroblasts cultivated in the presence of the peptide
  gap filling / proliferation and migration by comparison with control conditions: filled the gap faster; also recorded: stimulates the proliferation and migration
[14]; fibroblasts, 3×10^−6 M compared with 10^−6 M
  dose dependence of gap filling: the gap fills faster
[14]; human fibroblasts, 10^−6 M, 400 μm gap, control gap not yet filled at the same time
  time to total filling of the gap: 48 h

## Asp-Arg-Glu-Trp-Gln-Phe-Tyr-Cys-NH2 (DREWQFYC-NH2) [SEQ ID No. 9]
[1]
  expression of dermatopontin (immunofluorescence): more intense fluorescence; also recorded: very substantially stimulate the expression of dermatopontin
[2]
  expression of dermatopontin (immunofluorescence): more intense fluorescence at the dermis
